According to US20100173990A1, “Transglutaminase Inhibitor Comprising Chlorogenic Acid And A Method For Producing Thereof” (priority 2007, published 2010):

Molecular target: T1, Transglutaminase 2 (Cavia cutleri, UniProt P08587)
T1 construct: purchased Sigma-Aldrich T5398
T1 sequence (P08587 1-690): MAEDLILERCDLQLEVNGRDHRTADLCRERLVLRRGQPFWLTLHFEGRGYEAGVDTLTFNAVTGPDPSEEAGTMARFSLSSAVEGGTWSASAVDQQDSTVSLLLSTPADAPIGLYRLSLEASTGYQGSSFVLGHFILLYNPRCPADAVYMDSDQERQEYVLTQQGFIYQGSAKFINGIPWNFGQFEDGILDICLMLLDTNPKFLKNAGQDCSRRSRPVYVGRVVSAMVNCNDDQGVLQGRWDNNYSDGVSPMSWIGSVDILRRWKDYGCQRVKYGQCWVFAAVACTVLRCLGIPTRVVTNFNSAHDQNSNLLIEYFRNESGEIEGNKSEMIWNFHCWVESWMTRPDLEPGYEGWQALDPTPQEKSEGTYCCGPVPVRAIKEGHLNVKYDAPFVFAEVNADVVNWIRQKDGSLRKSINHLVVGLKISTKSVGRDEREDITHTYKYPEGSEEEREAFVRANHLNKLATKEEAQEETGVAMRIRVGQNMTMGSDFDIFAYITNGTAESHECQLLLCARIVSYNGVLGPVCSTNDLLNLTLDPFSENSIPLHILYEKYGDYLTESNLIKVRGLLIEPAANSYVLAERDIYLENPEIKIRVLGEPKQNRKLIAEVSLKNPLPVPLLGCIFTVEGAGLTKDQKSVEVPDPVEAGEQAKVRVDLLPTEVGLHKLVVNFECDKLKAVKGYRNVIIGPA
Test: In vitro assay for inhibition of transglutaminase activity ([1,4-14C] putrescine incorporation into succinylated casein)
Type: biochemical
Conditions: for activity of transglutaminase relative to DMSO-control, Assay 1 / activity of transglutaminase relative to DMSO-control, Assay 2 / activity of transglutaminase relative to DMSO-control, Assay 3 / activity of transglutaminase relative to DMSO-control, Mean: control = 1.0000; for activity of transglutaminase relative to DMSO-control, Mean: mean of three assays
Method: To measure the inhibitory activity of chlorogenic acid which competes with putrescine, the transglutaminase-catalyzed reaction between [1,4,-^14C] putrescine and succinylated casein were observed.
Succinylated casein was purchased from Calbiochem (Cat. No. 573464), and 1 g of the powder was dissolved in 50 ml of a reaction buffer solution containing 5 mM DTT (0.1 M Tris-acetate (pH 8.0), 10 mM CaCl, 0.15 M NaCl, 1.0 mM EDTA). This solution was stored in a deep freezer for further use. [1,4-^14C] Putrescine dihydrochloride was purchased from GE Healthcare (Cat. No. CFA301), and the stock solution was diluted with distilled water to yield a radiological dose of 5 μCi/ml. Transglutaminase 2 was purchased from Sigma-Aldrich (Cat. No. T5398), and diluted with distilled water to yield a final concentration of 1 unit/ml. Chlorogenic acid (Sigma-Aldrich, Cat No. C3878) was dissolved in DMSO at a concentration of 10 mM to prepare its stock solution, and the stock solution was diluted with DMSO to prepare solutions having various concentrations.
450 μl of succinylated casein solution and 50 μl of [1,4-^14C] putrescine dihydrochloride solution were mixed together to prepare a substrate solution. 96 μl of the reaction buffer, 3 μl of the stock solution of chlorogenic acid, and 1 μl of the stock solution of transglutaminase were mixed together to prepare each sample, followed by incubation at 37° C. for 10 min. 500 μl of the substrate solution and 100 μl of sample solution were mixed well, and the mixture was incubated at 37° C. for 2 hrs, before termination with 4.5 ml of cold (4° C.) 7.5% TCA. The final solution was stored at 4° C. for 1 hr. The TCA-precipitates were filtered through a GF/glass fiber filter, washed with 25 ml of cold 5% TCA, and dried. Radioactivity of crosslinked protein was measured using a β-counter (Beckman Coulter), and compensated by the activity of DMSO-control group as a standard. The activity of transglutaminase was represented by the measured values.

**Q.** For O=C(/C=C/c1ccc(O)c(O)c1)O[C@@H]1C[C@](O)(C(=O)O)C[C@@H](O)[C@H]1O [chlorogenic acid, 3-[[3-(3,4-dihydroxyphenyl)-1-oxo-2-propenyl]oxy]-1,4,5-trihydroxycyclohexanecarboxylic acid], which “activity of transglutaminase relative to DMSO-control, Assay 1” value (0.5 μM chlorogenic acid) is on record?
**A.** 0.9450

**Q.** And the “activity of transglutaminase relative to DMSO-control, Assay 2” value (0.5 μM chlorogenic acid)?
**A.** 0.8658

**Q.** And the “activity of transglutaminase relative to DMSO-control, Assay 3” value (0.5 μM chlorogenic acid)?
**A.** 0.9028

**Q.** What about the “activity of transglutaminase relative to DMSO-control, Mean” value (0.5 μM chlorogenic acid) of the same molecule?
**A.** 0.9045

**Q.** And the “activity of transglutaminase relative to DMSO-control, Assay 1” value (1.0 μM chlorogenic acid)?
**A.** 0.8294

**Q.** What about the “activity of transglutaminase relative to DMSO-control, Assay 2” value (1.0 μM chlorogenic acid) of the same molecule?
**A.** 0.7454

**Q.** What about the “activity of transglutaminase relative to DMSO-control, Assay 3” value (1.0 μM chlorogenic acid) of the same molecule?
**A.** 0.5411

**Q.** And the “activity of transglutaminase relative to DMSO-control, Mean” value (1.0 μM chlorogenic acid)?
**A.** 0.7053

**Q.** What about the “activity of transglutaminase relative to DMSO-control, Assay 1” value (2.0 μM chlorogenic acid) of the same molecule?
**A.** 0.4526

**Q.** What about the “activity of transglutaminase relative to DMSO-control, Assay 2” value (2.0 μM chlorogenic acid) of the same molecule?
**A.** 0.5111

**Q.** And the “activity of transglutaminase relative to DMSO-control, Assay 3” value (2.0 μM chlorogenic acid)?
**A.** 0.3081

**Q.** What about the “activity of transglutaminase relative to DMSO-control, Mean” value (2.0 μM chlorogenic acid) of the same molecule?
**A.** 0.4240

**Q.** And the “activity of transglutaminase relative to DMSO-control, Assay 1” value (3.0 μM chlorogenic acid)?
**A.** 0.2041

**Q.** And the “activity of transglutaminase relative to DMSO-control, Assay 2” value (3.0 μM chlorogenic acid)?
**A.** 0.1523

**Q.** And the “activity of transglutaminase relative to DMSO-control, Assay 3” value (3.0 μM chlorogenic acid)?
**A.** 0.1209

**Q.** What about the “activity of transglutaminase relative to DMSO-control, Mean” value (3.0 μM chlorogenic acid) of the same molecule?
**A.** 0.1591

**Q.** What about the “activity of transglutaminase relative to DMSO-control, Assay 1” value (5.0 μM chlorogenic acid) of the same molecule?
**A.** 0.1094

**Q.** And the “activity of transglutaminase relative to DMSO-control, Assay 2” value (5.0 μM chlorogenic acid)?
**A.** 0.1009

**Q.** What about the “activity of transglutaminase relative to DMSO-control, Assay 3” value (5.0 μM chlorogenic acid) of the same molecule?
**A.** 0.0797

**Q.** And the “activity of transglutaminase relative to DMSO-control, Mean” value (5.0 μM chlorogenic acid)?
**A.** 0.0966

**Q.** What about the “activity of transglutaminase relative to DMSO-control, Assay 1” value (10.0 μM chlorogenic acid) of the same molecule?
**A.** 0.0713

**Q.** And the “activity of transglutaminase relative to DMSO-control, Assay 2” value (10.0 μM chlorogenic acid)?
**A.** 0.0876

**Q.** What about the “activity of transglutaminase relative to DMSO-control, Assay 3” value (10.0 μM chlorogenic acid) of the same molecule?
**A.** 0.0754

**Q.** What about the “activity of transglutaminase relative to DMSO-control, Mean” value (10.0 μM chlorogenic acid) of the same molecule?
**A.** 0.0781

**Q.** What about the “activity of transglutaminase relative to DMSO-control, Assay 1” value (50.0 μM chlorogenic acid) of the same molecule?
**A.** 0.0711

**Q.** And the “activity of transglutaminase relative to DMSO-control, Assay 2” value (50.0 μM chlorogenic acid)?
**A.** 0.0808

**Q.** What about the “activity of transglutaminase relative to DMSO-control, Assay 3” value (50.0 μM chlorogenic acid) of the same molecule?
**A.** 0.0703

**Q.** What about the “activity of transglutaminase relative to DMSO-control, Mean” value (50.0 μM chlorogenic acid) of the same molecule?
**A.** 0.0741

**Q.** What about the IC50 (calculated by nonlinear regression from mean values) of the same molecule?
**A.** 1490 nM

**Q.** And the “inhibition of the activity of transglutaminase (FIG. 1)” value (relative inhibition activities versus concentration)?
**A.** inhibited in a chlorogenic acid concentration-dependent manner
